One experiment addresses T1, Nitric oxide synthase 3 (Bos taurus, UniProt P29473).
T1 sequence (P29473 whole entry): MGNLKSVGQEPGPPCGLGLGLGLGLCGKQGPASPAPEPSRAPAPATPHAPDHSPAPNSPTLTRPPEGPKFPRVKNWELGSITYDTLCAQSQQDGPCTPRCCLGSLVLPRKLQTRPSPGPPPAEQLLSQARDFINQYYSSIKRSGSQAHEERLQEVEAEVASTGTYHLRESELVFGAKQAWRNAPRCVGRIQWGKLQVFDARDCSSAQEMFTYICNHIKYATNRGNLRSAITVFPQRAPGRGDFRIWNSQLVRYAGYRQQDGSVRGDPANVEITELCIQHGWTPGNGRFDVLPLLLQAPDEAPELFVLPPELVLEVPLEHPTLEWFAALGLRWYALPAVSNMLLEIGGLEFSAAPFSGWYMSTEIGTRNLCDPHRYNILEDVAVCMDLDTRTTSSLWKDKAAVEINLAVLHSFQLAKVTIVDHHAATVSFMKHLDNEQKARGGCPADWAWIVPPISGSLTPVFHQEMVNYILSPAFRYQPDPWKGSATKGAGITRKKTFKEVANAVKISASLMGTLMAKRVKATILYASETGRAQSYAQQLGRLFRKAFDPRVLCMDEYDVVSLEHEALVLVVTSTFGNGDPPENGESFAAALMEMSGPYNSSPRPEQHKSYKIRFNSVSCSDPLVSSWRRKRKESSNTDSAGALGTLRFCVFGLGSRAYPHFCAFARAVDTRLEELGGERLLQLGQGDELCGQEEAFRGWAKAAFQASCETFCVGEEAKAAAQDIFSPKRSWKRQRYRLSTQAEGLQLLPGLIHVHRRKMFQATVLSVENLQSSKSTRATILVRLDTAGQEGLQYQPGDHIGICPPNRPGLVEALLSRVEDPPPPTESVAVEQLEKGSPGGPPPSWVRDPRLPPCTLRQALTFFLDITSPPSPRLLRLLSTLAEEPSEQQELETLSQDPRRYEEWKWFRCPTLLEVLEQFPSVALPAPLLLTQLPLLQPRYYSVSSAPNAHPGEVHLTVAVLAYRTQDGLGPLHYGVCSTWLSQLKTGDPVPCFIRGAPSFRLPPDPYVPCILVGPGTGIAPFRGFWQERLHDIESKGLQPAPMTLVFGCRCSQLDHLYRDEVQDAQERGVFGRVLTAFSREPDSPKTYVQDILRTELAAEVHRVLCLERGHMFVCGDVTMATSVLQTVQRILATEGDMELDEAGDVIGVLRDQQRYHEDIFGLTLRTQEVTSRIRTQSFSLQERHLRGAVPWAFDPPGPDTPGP
The experiment can be described thus: Inhibition of bovine recombinant eNOS overexpressed in Escherichia coli using L-arginine as substrate assessed as formation of NO-hemoglobin complex measured up to 180 seconds by hemoglobin capture assay.

Experiment [1] has as its target T2, Nitric oxide synthase, inducible (Mus musculus, UniProt P29477).
T2 sequence (P29477 whole entry): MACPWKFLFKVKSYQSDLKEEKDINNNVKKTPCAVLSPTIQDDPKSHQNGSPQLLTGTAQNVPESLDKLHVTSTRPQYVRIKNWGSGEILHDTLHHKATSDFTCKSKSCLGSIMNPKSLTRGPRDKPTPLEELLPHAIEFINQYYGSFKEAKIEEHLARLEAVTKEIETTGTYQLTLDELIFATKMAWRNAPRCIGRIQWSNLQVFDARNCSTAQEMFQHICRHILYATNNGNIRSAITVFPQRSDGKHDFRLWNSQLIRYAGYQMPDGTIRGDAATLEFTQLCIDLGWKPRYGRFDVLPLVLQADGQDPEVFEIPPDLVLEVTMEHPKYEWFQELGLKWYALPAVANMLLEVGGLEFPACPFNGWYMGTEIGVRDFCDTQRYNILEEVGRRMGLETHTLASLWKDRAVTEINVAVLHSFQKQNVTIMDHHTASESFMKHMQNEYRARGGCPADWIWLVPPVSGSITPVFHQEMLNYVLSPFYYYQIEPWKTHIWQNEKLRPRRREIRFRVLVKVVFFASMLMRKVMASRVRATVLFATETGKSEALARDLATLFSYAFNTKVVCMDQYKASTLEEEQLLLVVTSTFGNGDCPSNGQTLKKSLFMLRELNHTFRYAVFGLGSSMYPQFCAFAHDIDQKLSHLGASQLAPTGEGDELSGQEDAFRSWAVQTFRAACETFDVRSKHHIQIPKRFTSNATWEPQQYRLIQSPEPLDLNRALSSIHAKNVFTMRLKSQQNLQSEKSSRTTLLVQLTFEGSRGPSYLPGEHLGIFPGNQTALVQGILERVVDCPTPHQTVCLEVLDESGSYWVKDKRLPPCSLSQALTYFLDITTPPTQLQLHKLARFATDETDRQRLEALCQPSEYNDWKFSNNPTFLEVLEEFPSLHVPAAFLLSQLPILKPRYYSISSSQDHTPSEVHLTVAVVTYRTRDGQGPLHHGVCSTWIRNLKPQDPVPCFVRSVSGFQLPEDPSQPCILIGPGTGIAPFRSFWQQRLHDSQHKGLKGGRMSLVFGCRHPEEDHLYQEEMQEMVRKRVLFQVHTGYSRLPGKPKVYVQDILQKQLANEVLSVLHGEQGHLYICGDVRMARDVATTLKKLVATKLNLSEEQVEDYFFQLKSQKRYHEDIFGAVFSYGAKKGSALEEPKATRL
The experiment can be described thus: Inhibition of mouse recombinant iNOS overexpressed in Escherichia coli using L-arginine as substrate assessed as formation of NO-hemoglobin complex measured up to 180 seconds by hemoglobin capture assay.

A further experiment concerns the target Nitric oxide synthase 1 (Rattus norvegicus, UniProt P29476). The experiment is described as follows: Inhibition of rat recombinant nNOS overexpressed in Escherichia coli using L-arginine as substrate assessed as formation of NO-hemoglobin complex measured up to 180 seconds by hemoglobin capture assay.

pKi: −log10 of the molar value.

Chain of Nitric oxide synthase 1 (P29476 whole entry): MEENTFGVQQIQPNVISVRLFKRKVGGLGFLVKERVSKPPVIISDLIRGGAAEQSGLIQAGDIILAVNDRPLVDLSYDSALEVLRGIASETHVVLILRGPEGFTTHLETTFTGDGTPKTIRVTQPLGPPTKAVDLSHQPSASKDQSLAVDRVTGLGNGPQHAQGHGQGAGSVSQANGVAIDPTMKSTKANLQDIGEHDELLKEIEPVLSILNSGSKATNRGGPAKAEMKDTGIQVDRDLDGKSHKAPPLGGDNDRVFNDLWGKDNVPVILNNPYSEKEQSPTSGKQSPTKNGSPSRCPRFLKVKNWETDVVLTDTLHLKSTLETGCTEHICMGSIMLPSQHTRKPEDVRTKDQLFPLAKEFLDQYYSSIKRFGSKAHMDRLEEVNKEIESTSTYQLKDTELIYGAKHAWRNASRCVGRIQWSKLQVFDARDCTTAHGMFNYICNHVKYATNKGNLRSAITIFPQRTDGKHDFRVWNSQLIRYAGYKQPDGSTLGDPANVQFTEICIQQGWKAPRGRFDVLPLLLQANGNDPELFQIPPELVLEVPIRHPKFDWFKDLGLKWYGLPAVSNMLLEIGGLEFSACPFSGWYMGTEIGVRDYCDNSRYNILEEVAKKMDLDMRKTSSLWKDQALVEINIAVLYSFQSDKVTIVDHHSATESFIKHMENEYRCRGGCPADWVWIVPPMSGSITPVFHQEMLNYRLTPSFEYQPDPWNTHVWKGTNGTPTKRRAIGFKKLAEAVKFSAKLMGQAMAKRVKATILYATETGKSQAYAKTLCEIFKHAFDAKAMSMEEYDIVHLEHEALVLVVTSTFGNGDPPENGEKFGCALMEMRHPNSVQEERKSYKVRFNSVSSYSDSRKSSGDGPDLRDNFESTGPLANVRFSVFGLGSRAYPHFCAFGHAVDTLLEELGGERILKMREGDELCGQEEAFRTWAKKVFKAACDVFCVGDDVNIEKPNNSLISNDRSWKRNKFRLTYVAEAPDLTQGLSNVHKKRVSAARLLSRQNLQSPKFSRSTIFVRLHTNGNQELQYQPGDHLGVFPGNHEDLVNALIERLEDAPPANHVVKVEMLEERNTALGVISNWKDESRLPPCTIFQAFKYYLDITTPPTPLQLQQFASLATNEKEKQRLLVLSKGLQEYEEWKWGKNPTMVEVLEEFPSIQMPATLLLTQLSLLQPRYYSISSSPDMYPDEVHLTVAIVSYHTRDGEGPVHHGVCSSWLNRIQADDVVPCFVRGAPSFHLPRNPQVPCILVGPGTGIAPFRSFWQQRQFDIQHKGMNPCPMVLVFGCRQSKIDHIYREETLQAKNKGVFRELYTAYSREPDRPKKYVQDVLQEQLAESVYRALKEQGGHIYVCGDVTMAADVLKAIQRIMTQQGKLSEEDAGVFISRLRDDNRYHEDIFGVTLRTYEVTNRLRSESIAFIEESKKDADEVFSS

As to `Cc1cc(N)nc(COC[C@H]2C[C@H](OCc3cc(C)cc(N)n3)CN2)c1`, the pKi (as a rule, −log10 of the Ki, conventionally taken in molar units) on Nitric oxide synthase 3 is 5.17; in experiment [1], 5.54; on Nitric oxide synthase 1, 8.01.

The values are drawn from ChEMBL document CHEMBL3108683, “An Accessible Chiral Linker to Enhance Potency and Selectivity of Neuronal Nitric Oxide Synthase Inhibitors” (ACS Med Chem Lett, 2014).
